From PMC9078933 (2018)

Test system: ATB1 (DNA, aptamer) ATATCTTTTCCTACTCATCTTTGAATAACTACCGGGCATTACTTTCTGGCCTCCCTGCCTCCTAAATCACCAATTAATTCGCGGCCCCCCG
Test: fluorescence recovery, aptamer-QD on graphene oxide
Details: phosphate buffer pH 7.2, 0.5% BSA, room temperature; tested concentration not stated

- binding: no
SMILES: C[C@@H]1Cc2c(Cl)cc(C(=O)N[C@@H](Cc3ccccc3)C(=O)O)c(O)c2C(=O)O1
